Our source for the Ki values is ChEMBL document CHEMBL1131695, “Design and synthesis of 6-(6-D-ribitylamino-2,4-dihydroxypyrimidin-5-yl)-1-hexyl phosphonic acid, a potent inhibitor of lumazine synthase” (Bioorg Med Chem Lett, 1999).

What is called Ki is the dissociation constant of the complex between target and ligand, obtained from inhibition or displacement. Read a low Ki as higher affinity.

The nature of the experiment: Inhibitory activity against lumazine synthase beta-60 capsids from Bacillus subtilis.

Molecule `O=P(O)(O)CCCCCCc1c(O)nc(O)nc1NC[C@H](O)[C@H](O)[C@H](O)CO` registered a Ki of 109 µM.

Molecule `O=C(Nc1c(O)nc(O)nc1NC[C@H](O)[C@H](O)[C@H](O)CO)c1ccc(S(=O)(=O)O)cc1` had a Ki of 360 µM.

In turn, `O=C(O)CCCC(=O)Nc1c(O)nc(O)nc1NC[C@H](O)[C@H](O)[C@H](O)CO` yielded a Ki of 430 µM.

`O=C(Nc1c(O)nc(O)nc1NC[C@H](O)[C@H](O)[C@H](O)CO)c1ccc(S(=O)(=O)F)cc1` displayed a Ki of 200 µM.

The molecule `O=c1[nH]c(=O)c2nnn(C[C@H](O)[C@H](O)[C@H](O)CO)c2[nH]1` had a Ki of 330 µM.

Molecule `O=c1[nH]c(=O)c2ncn(C[C@H](O)[C@H](O)[C@H](O)CO)c2[nH]1` returned a Ki of 470 µM.
